# Experimental data: PubChem BioAssay (NCI)
#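 GI50 = concentration required for 50% inhibition of growth. At the TGI there is no net growth.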
# Key:
# Test in all cases: DTP human tumour cell line panel, 384-well format
# K-562 leukemia = test system: K-562 leukemia
# KM12 colon = test system: KM12 colon
# A498 renal = test system: A498 renal
# NCI-H226 lung = test system: NCI-H226 lung
# SNB-75 CNS = test system: SNB-75 CNS
# IGROV1 ovarian = test system: IGROV1 ovarian
# MOLT-4 leukemia = test system: MOLT-4 leukemia
# MDA-MB-435 melanoma = test system: MDA-MB-435 melanoma
# UACC-62 melanoma = test system: UACC-62 melanoma
# SN12C renal = test system: SN12C renal
# MDA-MB-468 breast = test system: MDA-MB-468 breast
# SF-268 CNS = test system: SF-268 CNS
# HL-60(TB) leukemia = test system: HL-60(TB) leukemia
# SK-MEL-2 melanoma = test system: SK-MEL-2 melanoma
# SK-MEL-5 melanoma = test system: SK-MEL-5 melanoma
# OVCAR-3 ovarian = test system: OVCAR-3 ovarian
# SW-620 colon = test system: SW-620 colon
# SK-OV-3 ovarian = test system: SK-OV-3 ovarian
# EKVX NSCLC = test system: EKVX NSCLC
# HCC-2998 colon = test system: HCC-2998 colon
# LOX IMVI melanoma = test system: LOX IMVI melanoma
# CCRF-CEM leukemia = test system: CCRF-CEM leukemia
# HOP-92 NSCLC = test system: HOP-92 NSCLC
# CAKI-1 renal = test system: CAKI-1 renal
# PC-3 prostate = test system: PC-3 prostate
# UACC-257 melanoma = test system: UACC-257 melanoma
# M14 melanoma = test system: M14 melanoma
# MCF7 breast = test system: MCF7 breast
# DU-145 prostate = test system: DU-145 prostate
# HT29 colon = test system: HT29 colon
# NCI/ADR-RES ovarian = test system: NCI/ADR-RES ovarian
# UO-31 renal = test system: UO-31 renal
# U251 glioblastoma = test system: U251 glioblastoma
# BT-549 breast = test system: BT-549 breast
# MDA-MB-231 breast = test system: MDA-MB-231 breast
# SF-539 CNS = test system: SF-539 CNS
# ACHN renal = test system: ACHN renal
# SF-295 CNS = test system: SF-295 CNS
# SK-MEL-28 melanoma = test system: SK-MEL-28 melanoma
# RXF 393 renal = test system: RXF 393 renal
# OVCAR-5 ovarian = test system: OVCAR-5 ovarian
# 786-0 renal = test system: 786-0 renal
# SNB-19 CNS = test system: SNB-19 CNS
# HS 578T breast = test system: HS 578T breast
# NCI-H522 lung = test system: NCI-H522 lung
# HCT-15 colon = test system: HCT-15 colon
# NCI-H460 NSCLC = test system: NCI-H460 NSCLC
# NCI-H322M lung = test system: NCI-H322M lung
# HOP-62 NSCLC = test system: HOP-62 NSCLC
# T-47D breast = test system: T-47D breast
# MALME-3M melanoma = test system: MALME-3M melanoma
# RPMI-8226 leukemia = test system: RPMI-8226 leukemia
# COLO 205 colon = test system: COLO 205 colon
# OVCAR-8 ovarian = test system: OVCAR-8 ovarian
# HCT-116 colon = test system: HCT-116 colon
# NCI-H23 lung = test system: NCI-H23 lung
# OVCAR-4 ovarian = test system: OVCAR-4 ovarian
# TK-10 renal = test system: TK-10 renal
# A549 NSCLC = test system: A549 NSCLC
smiles,measurement,setting,value
CNC(=O)c1ccccc1Nc1nc(Nc2ccc(N3CCOCC3)cc2OC)ncc1Cl,GI50,K-562 leukemia,4.53 µM
same,TGI,K-562 leukemia,18.1 µM
same,GI50,KM12 colon,261 nM
same,TGI,KM12 colon,899 nM
same,GI50,A498 renal,519 nM
same,TGI,A498 renal,9.57 µM
same,GI50,NCI-H226 lung,636 nM
same,TGI,NCI-H226 lung,5.35 µM
same,GI50,SNB-75 CNS,1160 nM
same,TGI,SNB-75 CNS,4.18 µM
same,GI50,IGROV1 ovarian,380 nM
same,TGI,IGROV1 ovarian,1910 nM
same,GI50,MOLT-4 leukemia,200 nM
same,TGI,MOLT-4 leukemia,380 nM
same,GI50,MDA-MB-435 melanoma,441 nM
same,TGI,MDA-MB-435 melanoma,6.63 µM
same,GI50,UACC-62 melanoma,487 nM
same,TGI,UACC-62 melanoma,2910 nM
same,GI50,SN12C renal,1380 nM
same,TGI,SN12C renal,6.86 µM
same,GI50,MDA-MB-468 breast,655 nM
same,TGI,MDA-MB-468 breast,2200 nM
same,GI50,SF-268 CNS,1620 nM
same,TGI,SF-268 CNS,14.3 µM
same,GI50,HL-60(TB) leukemia,107 nM
same,TGI,HL-60(TB) leukemia,264 nM
same,GI50,SK-MEL-2 melanoma,333 nM
same,TGI,SK-MEL-2 melanoma,1670 nM
same,GI50,SK-MEL-5 melanoma,766 nM
same,TGI,SK-MEL-5 melanoma,10.7 µM
same,GI50,OVCAR-3 ovarian,716 nM
same,TGI,OVCAR-3 ovarian,6.28 µM
same,GI50,SW-620 colon,400 nM
same,TGI,SW-620 colon,2440 nM
same,GI50,SK-OV-3 ovarian,741 nM
same,TGI,SK-OV-3 ovarian,4.8 µM
same,GI50,EKVX NSCLC,158 nM
same,TGI,EKVX NSCLC,1320 nM
same,GI50,HCC-2998 colon,711 nM
same,TGI,HCC-2998 colon,3.36 µM
same,GI50,LOX IMVI melanoma,754 nM
same,TGI,LOX IMVI melanoma,2500 nM
same,GI50,CCRF-CEM leukemia,199 nM
same,TGI,CCRF-CEM leukemia,376 nM
same,GI50,HOP-92 NSCLC,472 nM
same,TGI,HOP-92 NSCLC,2230 nM
same,GI50,CAKI-1 renal,664 nM
same,TGI,CAKI-1 renal,2440 nM
same,GI50,PC-3 prostate,1870 nM
same,TGI,PC-3 prostate,13.5 µM
same,GI50,UACC-257 melanoma,2620 nM
same,TGI,UACC-257 melanoma,22.2 µM
same,GI50,M14 melanoma,359 nM
same,TGI,M14 melanoma,5.88 µM
same,GI50,MCF7 breast,93.7 nM
same,TGI,MCF7 breast,14.6 µM
same,GI50,DU-145 prostate,485 nM
same,TGI,DU-145 prostate,3.47 µM
same,GI50,HT29 colon,200 nM
same,TGI,HT29 colon,1660 nM
same,GI50,NCI/ADR-RES ovarian,499 nM
same,TGI,NCI/ADR-RES ovarian,2720 nM
same,GI50,UO-31 renal,718 nM
same,TGI,UO-31 renal,5.32 µM
same,GI50,U251 glioblastoma,2350 nM
same,TGI,U251 glioblastoma,13.2 µM
same,GI50,BT-549 breast,1260 nM
same,TGI,BT-549 breast,10.4 µM
same,GI50,MDA-MB-231 breast,715 nM
same,TGI,MDA-MB-231 breast,> 100 µM
same,GI50,SF-539 CNS,1390 nM
same,TGI,SF-539 CNS,7.13 µM
same,GI50,ACHN renal,1110 nM
same,TGI,ACHN renal,9.28 µM
same,GI50,SF-295 CNS,511 nM
same,TGI,SF-295 CNS,7.44 µM
same,GI50,SK-MEL-28 melanoma,1340 nM
same,TGI,SK-MEL-28 melanoma,13.4 µM
same,GI50,RXF 393 renal,467 nM
same,TGI,RXF 393 renal,2310 nM
same,GI50,OVCAR-5 ovarian,597 nM
same,TGI,OVCAR-5 ovarian,5.66 µM
same,GI50,786-0 renal,997 nM
same,TGI,786-0 renal,4.99 µM
same,GI50,SNB-19 CNS,2690 nM
same,TGI,SNB-19 CNS,19.6 µM
same,GI50,HS 578T breast,977 nM
same,TGI,HS 578T breast,3.47 µM
same,GI50,NCI-H522 lung,407 nM
same,TGI,NCI-H522 lung,1720 nM
same,GI50,HCT-15 colon,464 nM
same,TGI,HCT-15 colon,10.9 µM
same,GI50,NCI-H460 NSCLC,267 nM
same,TGI,NCI-H460 NSCLC,1160 nM
same,GI50,NCI-H322M lung,1320 nM
same,TGI,NCI-H322M lung,3.98 µM
same,GI50,HOP-62 NSCLC,751 nM
same,TGI,HOP-62 NSCLC,8.77 µM
same,GI50,T-47D breast,1710 nM
same,TGI,T-47D breast,8.71 µM
same,GI50,MALME-3M melanoma,287 nM
same,TGI,MALME-3M melanoma,4.72 µM
same,GI50,RPMI-8226 leukemia,236 nM
same,TGI,RPMI-8226 leukemia,826 nM
same,GI50,COLO 205 colon,138 nM
same,TGI,COLO 205 colon,289 nM
same,GI50,OVCAR-8 ovarian,846 nM
same,TGI,OVCAR-8 ovarian,5.78 µM
same,GI50,HCT-116 colon,562 nM
same,TGI,HCT-116 colon,2850 nM
same,GI50,NCI-H23 lung,431 nM
same,TGI,NCI-H23 lung,2630 nM
same,GI50,OVCAR-4 ovarian,547 nM
same,TGI,OVCAR-4 ovarian,18.7 µM
same,GI50,TK-10 renal,450 nM
same,TGI,TK-10 renal,2190 nM
same,GI50,A549 NSCLC,398 nM
same,TGI,A549 NSCLC,2120 nM
